Assay results from ChEMBL document CHEMBL1201862, “PubChem BioAssay data set” (2004).
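48-hour exposure; five concentrations; linearly interpolated endpoints. GI50 = concentration required for 50% inhibition of growth.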 Active and inactive are the calls of the source. Rule as the data show it: active = GI50 up to about 1.1 µM and inactive = higher.

How the values were obtained:
Assay in all cases: NCI anticancer screen, dose series, 48 h
[1] = tested on: HCT-15
[2] = tested on: MOLT-4
[3] = tested on: MDA-MB-231
[4] = tested on: RPMI-8226
[5] = tested on: U-251
[6] = tested on: MDA-MB-435
[7] = tested on: UACC-257
[8] = tested on: CAKI-1
[9] = tested on: UACC-62
[10] = tested on: 786-0
[11] = tested on: SK-MEL-5
[12] = tested on: NCI-H460
[13] = tested on: HCC 2998
[14] = tested on: A549
[15] = tested on: SK-OV-3
[16] = tested on: SNB-75
[17] = tested on: HL-60
[18] = tested on: NCI-H23
[19] = tested on: OVCAR-8
[20] = tested on: NCI-H226

SMILES	GI50 [1] [µM]	GI50 [2]	GI50 [3]	GI50 [4]	GI50 [5]	GI50 [6]	GI50 [7]	GI50 [8]	GI50 [9]	GI50 [10]	GI50 [11]	GI50 [12]	GI50 [13]	GI50 [14]	GI50 [15]	GI50 [16]	GI50 [17]	GI50 [18]	GI50 [19]	GI50 [20]
O=C(O)[C@H](CCC[C@H]1C(=O)O[C@H](c2ccccc2)[C@H](c2ccccc2)N1C(=O)OCc1ccccc1)N[C@@H](c1ccccc1)[C@H](O)c1ccccc1	> 100	24.3 µM (inactive)	17.7 µM (inactive)	22.4 µM (inactive)	16 µM (inactive)	20.7 µM (inactive)	39.7 µM (inactive)	> 100 µM (inactive)	22.1 µM (inactive)	32.5 µM (inactive)	18.5 µM (inactive)	34.5 µM (inactive)	21 µM (inactive)	> 100 µM (inactive)	61.8 µM (inactive)	17 µM (inactive)	17.4 µM (inactive)	28.4 µM (inactive)	20.5 µM (inactive)	
Cc1c(C)c2c(c(N)c1C#N)C(=O)N(Nc1ccccc1)C2=O	> 100	92.7 µM (inactive)	31.9 µM (inactive)	> 100 µM (inactive)	43.5 µM (inactive)	72.8 µM (inactive)	81.8 µM (inactive)	> 100 µM (inactive)	51.4 µM (inactive)	51.9 µM (inactive)	> 100 µM (inactive)	60.8 µM (inactive)	> 100 µM (inactive)	74.3 µM (inactive)		30.6 µM (inactive)	26.7 µM (inactive)		33 µM (inactive)	61.2 µM (inactive)
CCCc1cc(=O)oc2c3c(c4c(c12)OC(C)(C)CC4)O[C@H](C)[C@@H](C)[C@H]3O	13.4	12.4 µM (inactive)	14.1 µM (inactive)	4.82 µM (inactive)	13.9 µM (inactive)	11.5 µM (inactive)	14.8 µM (inactive)	20.5 µM (inactive)	14.1 µM (inactive)	15.7 µM (inactive)	15.1 µM (inactive)	19 µM (inactive)	16.6 µM (inactive)	20 µM (inactive)	17.5 µM (inactive)	16.4 µM (inactive)		16 µM (inactive)	15.5 µM (inactive)	15.6 µM (inactive)
O=C(/C=C/c1ccc(O)c(O)c1)OCC(OC(=O)/C=C/c1ccc(O)c(O)c1)C(=O)O (centres undefined)	47.6	63.4 µM (inactive)	> 100 µM (inactive)	> 100 µM (inactive)	63.7 µM (inactive)	> 100 µM (inactive)	> 100 µM (inactive)	> 100 µM (inactive)	> 100 µM (inactive)	> 100 µM (inactive)	> 100 µM (inactive)	86.9 µM (inactive)	> 100 µM (inactive)	> 100 µM (inactive)	> 100 µM (inactive)	63 µM (inactive)		> 100 µM (inactive)	> 100 µM (inactive)	> 100 µM (inactive)
COc1ccc2oc(C(=O)N3CC(CCl)c4ccc([N+](=O)[O-])cc43)cc2c1 (centres undefined)			14.9 µM (inactive)	> 100 µM (inactive)	26 µM (inactive)	0.468 µM (active)	> 100 µM (inactive)	15.4 µM (inactive)	41.9 µM (inactive)	16.2 µM (inactive)	> 100 µM (inactive)	31.3 µM (inactive)	> 100 µM (inactive)		13.2 µM (inactive)	18.2 µM (inactive)		73.8 µM (inactive)	17.2 µM (inactive)	0.664 µM (active)
S=c1c2cn[nH]c2nc2scc(-c3ccc(Cl)cc3)n12	10.7	15.6 µM (inactive)	17 µM (inactive)	23.6 µM (inactive)	12.9 µM (inactive)	3.78 µM (inactive)	54.6 µM (inactive)	9.59 µM (inactive)	16.3 µM (inactive)	14.1 µM (inactive)	17.6 µM (inactive)	20.6 µM (inactive)	15.4 µM (inactive)	13 µM (inactive)	18.1 µM (inactive)	13.9 µM (inactive)		13.8 µM (inactive)	16 µM (inactive)	
